Values quoted from earlier work in patent US20210060105A1, “GINKGO BILOBA EXTRACT COMPOSITE FORMULATION AND USE OF THE SAME” (priority 2019, published 2021).

Tests used:
[1] = increased from the original 49.7±3.6 mg/dL

## CC1=C(/C=C/C(C)=C/C=C/C(C)=C/C=C/C=C(C)/C=C/C=C(C)/C=C/C2=C(C)C(=O)[C@@H](O)CC2(C)C)C(C)(C)C[C@H](O)C1=O [Astaxanthin, astaxanthin]
Compared with vitamin E
  antioxidant ability relative to vitamin E: 550 times
Compared with β-carotene
  antioxidant ability relative to β-carotene: 10 times
[1]
  HDL in vivo after astaxanthin: 66.5 ± 5.1 mg/dL
